In the supplement of paper PMC10627819:

Assays:
[1] = system: S. aureus Newman; test: fitness (endpoint OD595 vs no drug) (fraction); higher = more growth
Outline: (§1)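 Fitness expresses the optical density reached at the stationary-phase transition as a fraction of the robust mean of no-drug control wells. It is capped at 1. Measurements were OD595 every 30 min for 14 h at 37 °C after inoculation of 384-well plates at OD595 0.01 (30 µl, or 55 µl for S. pneumoniae), minus the first reading.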

[2] = system: S. pneumoniae D39V; test: as above
Outline: as §1

[3] = system: B. subtilis 168; test: Bliss interaction score (quartile over a dose matrix) (fitness difference); higher = more antagonism (negative = synergy)
Outline: (§2)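 OD595 was read at entry into stationary phase and expressed relative to the robust mean of the no-drug wells on the same plate, capped at 1. The resulting ratio is the fitness value. The Bliss score, observed fitness minus product-based expected fitness with single-drug fitness inferred from combinations, is summarised by quartiles over technical, biological and donor/recipient replicates.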

[4] = system: S. aureus DSM 20231; test: as above
Outline: as §2

[5] = system: S. aureus Newman; test: as above
Outline: as §2

[6] = system: S. pneumoniae D39V; test: as above
Outline: as §2
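For Bliss interaction score (quartile over a dose matrix) in this document: first quartile when negative (synergy) and third quartile when positive (antagonism).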

CC1(C)S[C@@H]2[C@H](NC(=O)[C@H](N)c3ccc(O)cc3)C(=O)N2[C@H]1C(=O)O [Amoxicillin] + CN[C@@H]1[C@H](O[C@H]2[C@H](O[C@H]3[C@H](O)[C@@H](O)[C@H](N=C(N)N)[C@@H](O)[C@@H]3N=C(N)N)O[C@@H](C)[C@]2(O)C=O)O[C@@H](CO)[C@H](O)[C@H]1O [Streptomycin]
fitness
Details | first compound 0.0008 µg/mL | first compound 0.0015 µg/mL | first compound 0.003 µg/mL | first compound 0.0625 µg/mL | first compound 0.125 µg/mL | first compound 0.25 µg/mL
[1], partner 1 µg/mL | – | – | – | 0.857 | 0.856 | 0.845
[1], partner 2 µg/mL | – | – | – | 0.823 | 0.792 | 0.798
[2], partner 2 µg/mL | 0.979 | 0.931 | 0.899 | – | – | –
[2], partner 4 µg/mL | 0.947 | 0.877 | 0.866 | – | – | –
[2], partner 8 µg/mL | 0.968 | 0.929 | 0.895 | – | – | –

one replicate
Details | fitness
[1], first compound 0.0625 µg/mL, partner 8 µg/mL | 0.0265
[1], first compound 0.125 µg/mL, partner 8 µg/mL | 0.0373
[1], first compound 0.25 µg/mL, partner 8 µg/mL | 0.0414
[2], first compound 0.0008 µg/mL, partner 16 µg/mL | 0.807
[2], first compound 0.0015 µg/mL, partner 16 µg/mL | 0.749
[2], first compound 0.003 µg/mL, partner 16 µg/mL | 0.724
[2], first compound 0.006 µg/mL, partner 2 µg/mL | 0.488
[2], first compound 0.006 µg/mL, partner 4 µg/mL | 0.413
[2], first compound 0.006 µg/mL, partner 8 µg/mL | 0.274

Details | Bliss interaction score
[3] | -0.054
[4] | -0.0777
[5] | -0.0764
[6] | 0.0594

CC1(C)S[C@@H]2[C@H](NC(=O)[C@H](N)c3ccc(O)cc3)C(=O)N2[C@H]1C(=O)O [Amoxicillin] + CO/N=C(\C(=O)N[C@@H]1C(=O)N2C(C(=O)O)=C(COC(N)=O)CS[C@H]12)c1ccco1 [Cefuroxime]
fitness, [1], one replicate
Details | first compound 0.0625 µg/mL | first compound 0.125 µg/mL | first compound 0.25 µg/mL
partner 0.04875 µg/mL | 0.944 | 0.932 | 0.841
partner 0.0975 µg/mL | 0.895 | 0.804 | 0.747
partner 0.195 µg/mL | 0.895 | 0.805 | 0.772

Details | Bliss interaction score
[3] | 0.0792
[4] | -0.127
[5] | 0.097
[6] | 0.0491

CC1(C)S[C@@H]2[C@H](NC(=O)[C@H](N)c3ccc(O)cc3)C(=O)N2[C@H]1C(=O)O [Amoxicillin] + O=C(O)c1cn(C2CC2)c2cc(N3CCNCC3)c(F)cc2c1=O [Ciprofloxacin]
Details | fitness
[1], first compound 0.0625 µg/mL, partner 0.0375 µg/mL | 0.734
[1], first compound 0.0625 µg/mL, partner 0.075 µg/mL | 0.656
[2], first compound 0.0008 µg/mL, partner 0.125 µg/mL | 0.93
[2], first compound 0.0008 µg/mL, partner 0.25 µg/mL | 0.834
[2], first compound 0.0015 µg/mL, partner 0.125 µg/mL | 0.94
[2], first compound 0.0015 µg/mL, partner 0.25 µg/mL | 0.828
[2], first compound 0.003 µg/mL, partner 0.125 µg/mL | 0.934
[2], first compound 0.003 µg/mL, partner 0.25 µg/mL | 0.826
[2], first compound 0.003 µg/mL, partner 0.5 µg/mL | 0.747

fitness, one replicate
Details | partner 0.078 µg/mL | partner 0.125 µg/mL | partner 0.156 µg/mL | partner 0.25 µg/mL | partner 0.312 µg/mL | partner 0.5 µg/mL
[1], first compound 0.0625 µg/mL | 0.327 | – | 0.075 | – | 0.0582 | –
[1], first compound 0.125 µg/mL | 0.192 | – | 0.0621 | – | 0.038 | –
[1], first compound 0.25 µg/mL | 0.144 | – | 0.056 | – | 0.0663 | –
[2], first compound 0.006 µg/mL | – | 0.549 | – | 0.474 | – | 0.453

Details | Bliss interaction score
[3] | -0.063
[4] | -0.0788
[5] | -0.0561
[6] | 0.0751

CO/N=C(\C(=O)N[C@@H]1C(=O)N2C(C(=O)[O-])=C(C[N+]3(C)CCCC3)CS[C@H]12)c1csc(N)n1 [Cefepime] + C/C(=C\C(=O)OCCCCCCCCC(=O)O)C[C@@H]1OC[C@H](C[C@@H]2O[C@H]2[C@@H](C)[C@H](C)O)[C@@H](O)[C@H]1O [Pseudomonic acid]
fitness, [1], one replicate
Details | first compound 0.125 µg/mL | first compound 0.25 µg/mL | first compound 0.5 µg/mL
partner 0.0313 µg/mL | 0.0486 | 0.044 | 0.0558
partner 0.0625 µg/mL | 0.0381 | 0.0306 | 0.0329
partner 0.125 µg/mL | 0.0329 | 0.0557 | 0.0514

fitness, [2]
Details | first compound 0.007 µg/mL | first compound 0.0078 µg/mL | first compound 0.014 µg/mL | first compound 0.0155 µg/mL | first compound 0.028 µg/mL | first compound 0.031 µg/mL
partner 0.03 µg/mL | ≥ 1 | 0.93 | ≥ 1 | 0.945 | ≥ 1 | 0.747
partner 0.06 µg/mL | 0.924 | 0.814 | 0.976 | 0.796 | 0.968 | 0.631
partner 0.12 µg/mL | 0.583 | 0.578 | 0.631 | 0.56 | 0.568 | 0.382

Details | Bliss interaction score
[3] | 0.0521
[4] | 0.0141
[5] | 0.0093
[6] | 0.0923

CO/N=C(\C(=O)N[C@@H]1C(=O)N2C(C(=O)[O-])=C(C[N+]3(C)CCCC3)CS[C@H]12)c1csc(N)n1 [Cefepime] + CC1=C(C(=O)O)N2C(=O)[C@@H](NC(=O)[C@H](N)c3ccccc3)[C@H]2SC1 [Cephalexin]
fitness
Details | first compound 0.007 µg/mL | first compound 0.014 µg/mL | first compound 0.028 µg/mL | first compound 0.125 µg/mL | first compound 0.25 µg/mL | first compound 0.5 µg/mL
[1], partner 0.25 µg/mL | – | – | – | 0.941 | 0.876 | 0.843
[1], partner 0.5 µg/mL | – | – | – | 0.939 | 0.867 | 0.8
[1], partner 1 µg/mL | – | – | – | 0.969 | 0.922 | 0.861
[2], partner 1 µg/mL | 0.93 | 0.923 | 0.584 | – | – | –
[2], partner 2 µg/mL | 0.101 | 0.0733 | 0.0074 | – | – | –
[2], partner 4 µg/mL | 0.0209 | 0.0355 | 0.015 | – | – | –

fitness, [2], one replicate
Details | first compound 0.0078 µg/mL | first compound 0.0155 µg/mL | first compound 0.031 µg/mL
partner 0.125 µg/mL | ≥ 1 | 0.94 | 0.434
partner 0.25 µg/mL | 0.988 | 0.96 | 0.529
partner 0.5 µg/mL | ≥ 1 | 0.925 | 0.297

Details | Bliss interaction score
[3] | 0.0474
[4] | 0.0619
[5] | -0.0529
[6] | -0.105
